Assay results taken from PubChem BioAssay (NCI).
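The compound was tested at five concentrations on cells cultured in 96-well plates, with a 48-hour exposure period. GI50: concentration for 50% inhibition of growth. TGI denotes the concentration required for complete inhibition of growth.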 Where a SMILES comes first, the peptide text is derived from it. The star is where a group is joined. Boc = CC(C)(C)OC(=O)*

Experiments:
Assay in all cases: inhibition of tumour cell growth, NCI panel, 48 h
[1] = system: A498 renal
[2] = system: CCRF-CEM leukemia
[3] = system: M14 melanoma
[4] = system: OVCAR-3 ovarian
[5] = system: OVCAR-4 ovarian
[6] = system: SF-268 CNS
[7] = system: SF-539 CNS
[8] = system: T-47D breast
[9] = system: UO-31 renal
[10] = system: HS 578T breast

Compound `O=C1OC2(C(F)(F)F)Oc3ccccc3CN2C12CCCCC2` (stereo unspecified) has a TGI [1] greater than 100 µM, a TGI [2] of 62.7 µM and a TGI [3] of 66 µM. It also gave a TGI [4] greater than 100 µM, a TGI [5] greater than 100 µM and a TGI [6] greater than 100 µM. For the same compound, the TGI [7] was greater than 100 µM, the TGI [8] was greater than 100 µM and the TGI [9] was 84.3 µM.
`Cc1cc2ccccc2n1CC(=O)N1CCCC1` gave a TGI [2] greater than 100 µM, a TGI [10] greater than 100 µM and a TGI [3] greater than 100 µM. It also gave a TGI [4] greater than 100 µM, a TGI [5] greater than 100 µM and a TGI [6] greater than 100 µM. For the same compound, the TGI [7] was greater than 100 µM, the TGI [8] was greater than 100 µM and the TGI [9] was greater than 100 µM.
`COc1ccc(Oc2nc3ccc(C(F)(F)F)cc3nc2-c2ccccc2)cc1` was tested, and the TGI [1] was greater than 100 µM, the TGI [2] was greater than 100 µM and the TGI [10] was greater than 100 µM. The TGI [4] was greater than 100 µM, the TGI [5] was greater than 100 µM and the TGI [6] was greater than 100 µM. It also gave a TGI [9] greater than 100 µM.
Compound `COC(=O)C(Cc1c[nH]c2ccccc12)NC(=O)C(Cc1c[nH]c2ccccc12)NC(=O)C(Cc1c[nH]c2ccccc12)NC(=O)C(Cc1c[nH]c2ccccc12)NC(=O)OC(C)(C)C` (stereo unspecified) (Boc-WWWW-OMe; configuration not given here) has a TGI [2] of 34.3 µM, a TGI [3] greater than 100 µM and a TGI [4] of 40.2 µM. The TGI [5] was greater than 100 µM, the TGI [6] was greater than 100 µM and the TGI [8] was greater than 100 µM. For the same compound, the TGI [9] was greater than 100 µM.
For `CSc1nc(NC2OCC(O)C(O)C2O)c(N)c(=O)n1C` (stereo unspecified), the TGI [1] was greater than 100 µM, the TGI [2] was greater than 100 µM and the TGI [4] was greater than 100 µM. The TGI [5] was greater than 100 µM, the TGI [6] was greater than 100 µM and the TGI [7] was greater than 100 µM. The TGI [9] was greater than 100 µM.
`CCc1nn(S(=O)(=O)c2ccc(C)cc2)c2c1CS(=O)(=O)CC2` gave a TGI [1] greater than 100 µM, a TGI [10] of 87.7 µM and a TGI [3] greater than 100 µM. The TGI [4] was greater than 100 µM, the TGI [5] was greater than 100 µM and the TGI [6] was greater than 100 µM. It also gave a TGI [7] greater than 100 µM, a TGI [8] greater than 100 µM and a TGI [9] greater than 100 µM.
`Fc1ccc(C2CC(c3cccc(Nc4ccncc4)c3)=NN2c2cc(Cl)cc(Cl)c2)cc1` (stereo unspecified) gave a GI50 [1] of 1.17 µM, a TGI [1] of 2.6 µM and a GI50 [2] of 2.9 µM. For the same compound, the TGI [2] was greater than 100 µM, the GI50 [3] was 1.74 µM and the TGI [3] was 3.28 µM. It also gave a GI50 [4] of 1.8 µM, a TGI [4] of 3.32 µM and a GI50 [5] of 1.77 µM. For the same compound, the TGI [5] was 3.23 µM, the GI50 [6] was 1.72 µM and the TGI [6] was 3.4 µM. The GI50 [7] was 1.64 µM, the TGI [7] was 3.11 µM and the GI50 [9] was 1.36 µM. It also gave a TGI [9] of 2.66 µM.
Work on `OCC(O)C1OC2CC1Nc1ccccc1N2` (stereo unspecified) yielded a TGI [1] greater than 100 µM, a TGI [2] greater than 100 µM and a TGI [10] greater than 100 µM. The TGI [4] was greater than 100 µM, the TGI [6] was greater than 100 µM and the TGI [7] was greater than 100 µM. For the same compound, the TGI [8] was greater than 100 µM and the TGI [9] was greater than 100 µM.
In the case of `COc1ccccc1NC(=S)N/N=C(/C)c1ccccn1`, the TGI [2] is reported as 0.0737 µM, the TGI [10] is reported as greater than 100 µM and the TGI [3] is reported as 2.54 µM. It also gave a TGI [5] greater than 100 µM, a TGI [7] of 14.9 µM and a TGI [9] greater than 83.4 µM.
With `C[C@@H]1C[C@]2(C[C@@H](C)[C@H]3C(C[C@@]4(C)CCC[C@@H]5C6=C[C@H](CCC34C)OC6=CC(=O)OC5(C)C)O2)OC1=O` (stereo partly specified) the TGI [1] was greater than 51.5 µM, the TGI [2] was greater than 51.5 µM and the TGI [4] was greater than 51.5 µM. The TGI [5] was greater than 51.5 µM, the TGI [7] was greater than 51.5 µM and the TGI [9] was greater than 51.5 µM.
`COc1ccc(C[C@H](N)C(=O)N2C[C@H](CO)C[C@H](n3ccc(=O)[nH]c3=O)C2)cc1` showed a TGI [2] greater than 100 µM, a TGI [3] greater than 100 µM and a TGI [4] greater than 100 µM. For the same compound, the TGI [5] was greater than 100 µM, the TGI [6] was greater than 100 µM and the TGI [7] was greater than 100 µM. The TGI [9] was greater than 100 µM.
In the case of `[N-]=[N+]=NC1CC(n2cc(COCC(F)(F)F)c(=O)[nH]c2=O)OC1CO` (stereo unspecified), the TGI [1] is reported as greater than 100 µM, the TGI [2] is reported as greater than 100 µM and the TGI [3] is reported as greater than 100 µM. It also gave a TGI [4] greater than 100 µM, a TGI [5] greater than 100 µM and a TGI [6] greater than 100 µM. The TGI [7] was greater than 100 µM and the TGI [9] was greater than 100 µM.
With `Cc1ccc(NC(=S)Nc2c(C)n(C)n(-c3ccccc3)c2=O)cc1` the TGI [1] was greater than 100 µM, the TGI [2] was greater than 100 µM and the TGI [10] was greater than 100 µM. The TGI [3] was greater than 100 µM, the TGI [4] was greater than 100 µM and the TGI [6] was greater than 100 µM. For the same compound, the TGI [7] was greater than 100 µM and the TGI [9] was greater than 100 µM.
`Cc1cccc2nc3cccc(C(=O)NCCC[N+](C)(CCCNC(=O)c4cccc5nc6cccc(C)c6nc45)Cc4c([N+](=O)[O-])ncn4C)c3nc12` showed a GI50 [1] greater than 1100 µM, a TGI [1] greater than 1100 µM and a TGI [2] greater than 1100 µM. The TGI [10] was greater than 1100 µM, the TGI [4] was greater than 1100 µM and the GI50 [5] was 14.8 µM. It also gave a TGI [5] greater than 1100 µM, a GI50 [6] of 19.2 µM and a TGI [6] greater than 1100 µM. For the same compound, the GI50 [7] was 1.59 µM, the TGI [7] was 9.07 µM and the TGI [8] was greater than 1100 µM. For the same compound, the GI50 [9] was 48.7 µM and the TGI [9] was greater than 1100 µM.
With `CC(C)(C)OC(=O)NC(Cc1ccc(O)cn1)C(N)=O` (stereo unspecified) the TGI [1] was greater than 100 µM, the TGI [10] was greater than 100 µM and the TGI [4] was greater than 100 µM. It also gave a TGI [5] greater than 100 µM, a TGI [6] greater than 100 µM and a TGI [7] greater than 100 µM. The TGI [9] was greater than 100 µM.
Work on `Oc1ccc2c(c1)CC[N+]1=C2CCC2CCCC21` (stereo unspecified) yielded a TGI [3] greater than 100 µM, a TGI [4] greater than 100 µM and a TGI [5] greater than 100 µM. The TGI [6] was greater than 100 µM, the TGI [7] was greater than 100 µM and the TGI [9] was greater than 100 µM.
Work on `CCOC(=O)CCc1c(C(=O)OCC)[nH]c(/C=C2\NC(=O)C(C)=C2CC)c1C` yielded a TGI [2] greater than 100 µM, a TGI [3] greater than 100 µM and a TGI [4] of 49.6 µM. The TGI [5] was 59.4 µM, the TGI [6] was 92.1 µM and the TGI [7] was 69.6 µM. For the same compound, the TGI [8] was 26 µM and the TGI [9] was greater than 100 µM.
Compound `Cn1c(-c2ccc[se]2)ccc1-c1ccc(CO)[se]1` has a TGI [1] of 0.14 µM, a TGI [2] greater than 100 µM and a TGI [10] greater than 100 µM. It also gave a TGI [3] greater than 100 µM, a TGI [5] greater than 100 µM and a TGI [6] greater than 100 µM. It also gave a TGI [7] greater than 100 µM and a TGI [9] greater than 100 µM.
Compound `Cc1cn(CC2=NCCCN2)c(=O)[nH]c1=O` has a TGI [1] greater than 100 µM, a TGI [2] greater than 100 µM and a TGI [10] greater than 100 µM. The TGI [3] was greater than 100 µM, the TGI [6] was greater than 100 µM and the TGI [8] was greater than 100 µM. It also gave a TGI [9] greater than 100 µM.
For `C[C@H](CC[C@@H](O)C(C)(C)O)[C@H]1CC[C@@]2(C)[C@@H]3CC=C4[C@@H](CC[C@H](O)C4(C)C)[C@]3(C)C(=O)C[C@]12C`, the TGI [1] was greater than 50 µM, the TGI [2] was greater than 50 µM and the TGI [10] was greater than 50 µM. The TGI [3] was greater than 50 µM, the TGI [4] was greater than 50 µM and the TGI [5] was greater than 50 µM. For the same compound, the TGI [7] was greater than 50 µM and the TGI [9] was greater than 50 µM.
Compound `N/N=C1/C(=N/O)CCc2nonc21` has a TGI [2] greater than 100 µM, a TGI [10] greater than 100 µM and a TGI [3] greater than 100 µM. It also gave a TGI [4] greater than 100 µM, a TGI [5] greater than 100 µM and a TGI [6] greater than 100 µM. It also gave a TGI [7] greater than 100 µM, a TGI [8] greater than 100 µM and a TGI [9] greater than 100 µM.
`O=C(NC1(C(=O)NNc2nnc(-c3ccccc3)c(-c3ccccc3)n2)C(c2ccccc2)C(c2ccccc2)=NN1c1ccccc1)c1ccccc1` (stereo unspecified) gave a TGI [1] greater than 100 µM, a TGI [10] greater than 100 µM and a TGI [3] greater than 100 µM. The TGI [4] was greater than 100 µM, the TGI [5] was greater than 100 µM and the TGI [6] was greater than 100 µM. It also gave a TGI [7] greater than 100 µM, a TGI [8] greater than 100 µM and a TGI [9] greater than 100 µM.
`C=C(CC(=O)Nc1ccc(C(=O)OC)o1)C(=O)OC` showed a TGI [1] greater than 100 µM, a TGI [10] greater than 100 µM and a TGI [3] of 36.1 µM. For the same compound, the TGI [5] was 71.6 µM, the TGI [6] was greater than 100 µM and the TGI [7] was 36.1 µM. It also gave a TGI [8] of 54.8 µM and a TGI [9] of 39.5 µM.
